{
  "source": "paper PMC4864329",
  "about": "“In vitro and in vivo efficacy, toxicity, bio-distribution and resistance selection of a novel antibacterial drug candidate” (Scientific Reports, 2016)",
  "key": {"human lymphocytes": {"test_system": "human lymphocytes", "settings": "positive control", "procedure": "Gene toxicity was assessed by testing the potential of SET-M33L to induce micronuclei in human lymphocytes. Human lymphocytes in whole blood culture, stimulated to divide by addition of PHA 48 hours prior to treatment, were exposed to SET-M33L for 3 hours with and without exogenous metabolic activation (S9 mix), and for 20 hours without S9 mix.\nAnalysis of micronucleated cells was based on the criteria described by Fenech and Morley[37] and Fenech[38]. […] Human lymphocytes from informed donors were pooled and diluted with HML media (RPMI 1640, supplemented with 10% fetal calf serum, 0.2 IU/ml sodium heparin, 20 IU/ml penicillin, 20 μg/ml streptomycin and 2.0 mM L-glutamine). […] Cultures were established from the prepared (pooled) sample and dispensed as 5 ml aliquots (in sterile universal containers) so that each culture contained blood (0.4 ml), HML media (4.5 ml) and PHA solution (0.1 ml). The cultures were then incubated at 37 °C, and the cells were resuspended (twice daily) by gentle inversion.\nLymphocyte cultures were incubated for approximately 48 hours after stimulation with PHA, before addition of SET-M33L; controls were appropriately diluted with vehicle. S9 homogenate was present in appropriate cultures at a final concentration of 2% v/v. Before treatment, all cultures were centrifuged and resuspended in the required volume of fresh medium, taking treatment volume and S9 mix volume into account. SET-M33L preparations were added to cultures at 10% v/v. Cultures were incubated at 37 °C for 3 or 20 hours.\nThe cells were centrifuged and the medium replaced with fresh medium. Cytochalasin B, at a final concentration of 6 μg/ml, was then added to all cultures. The cultures were incubated for a further 17 hours until the scheduled harvest time.\nThe cells were harvested by centrifugation at 500 g for 5 minutes. […] The prepared slides were examined by fluorescence microscopy. The incidences of mononucleate, binucleate and polynucleate cells were assessed per culture per 1000 binucleate cells. […]"}, "[1]": {"test_system": "Klebsiella pneumoniae clinical isolates", "assay_type": "cell-based", "settings": "clinical isolates", "procedure": "Minimum inhibitory concentrations (MICs) of SET-M33L were determined against 76 clinical isolates of Pseudomonas aeruginosa and 73 clinical isolates of Klebsiella pneumoniae. The isolates were selected on the basis of their resistance phenotypes and major antibiotic resistance determinants, including resistance to colistin and carriage of carbapenemase-encoding genes (Table 1 and supplemental Tables S1 and S2).\nMIC values were determined against a large collection of clinical isolates. Most isolates were collected during routine susceptibility testing procedures at the Clinical Microbiology Unit of Careggi University Hospital in Florence, while specific isolates were selected according to their phenotype or genotype (e.g. carriage of carbapenemase-encoding genes, inclusion in epidemic bacterial clones, resistance to colistin) from a collection of isolates already available at Department of Medical Biotechnologies, University of Siena. Detailed features of each strain, including relevant resistance phenotypes and genotypes were reported in supplemental Tables S1 and S2. MICs were determined in triplicate using a standard microdilution assay according to the guidelines of the Clinical and Laboratory Standards Institute[34]. SET-M33L was assayed using concentrations in the range 0.09–11.2 μM (0.5–64 μg/mL); testing was performed using a bacterial inoculum of 5 × 10^4 CFU/well prepared in cation-supplemented Mueller-Hinton broth (MHB) (Becton Dickinson, Franklin Lakes, NJ, USA) in a final volume of 100 μl. Results were recorded after 18–20 h of incubation at 35 °C."}, "[2]": {"test_system": "K. pneumoniae strain KKBO-1", "assay_type": "cell-based, Klebsiella pneumoniae", "settings": "K. pneumoniae KKBO-1", "procedure": "Tests were performed by plating cells on SET-M33L- or colistin-containing MHB."}, "BALB/c mice": {"test_system": "BALB/c mice", "assay": "Acute toxicity in mice, single i.v. dose", "assay_type": "in vivo, mouse", "procedure": "As preliminary toxicity evaluation we first compared the acute toxicity of SET-M33L and SET-M33L-PEG with that of colistin. Animals (10 BALB/c mice/group) were injected i.v. with different amounts of SET-M33L, SET-M33L-PEG or colistin, in single dose, in the range 5–40 mg/kg (Fig. 4), and were monitored for 4 days after inoculation of the peptide. […] At 40 mg/Kg SET-M33L and SET-M33L-PEG produced similar toxicity profiles with strong signs of toxicity and 90–100% mortality after 96 hours. Colistin produced strong signs of toxicity already at 10 mg/Kg: 50% mortality immediately after inoculation and 70% mortality after 24 hours. Colistin induced sudden death in 100% of mice at 20 and 40 mg/Kg.\nMice were treated by a single i.v. administration of different amounts (40, 20, 10, 5 mg/Kg) of SET-M33L, SET-M33L-PEG or colistin sulfate (Sigma-Aldrich, C4461). Signs of toxicity were checked four times a day by visual inspection. A toxicity score was assigned for the following signs: wiry coat and poor motility = mild signs; very wiry coat, abundant lachrymation and poor motility even under stimulation = manifest signs. Animals were monitored for 4 days after inoculation of the peptide. Mice were weighed every day from arrival to the last day of the experiment. Moribund animals were killed humanely to avoid unnecessary distress."}},
  "note": "Read-outs that look alike come from different tables or passages of the source. Positions of bridges follow the written chain, without caps; N, C: chain ends. Non-standard residues stand in square brackets, D forms with d. Residues, ends and D or L forms follow the SMILES beside them. Chains are numbered I, II in the order given. βAla = NCCC(=O)O",
  "data": [
    {"smiles": "O=P1(N(CCCl)CCCl)NCCCO1", "note": "(stereo not shown) [CPA, Cyclophosphamide]", "values": [
      {"measurement": "Mean of binucleate cells containing micronuclei per 1000 cells", "setting": "human lymphocytes; 3h + S9, 10 μg/ml", "result": 17.0, "unit": "per 1000 cells"}
    ]},
    {"smiles": "CO[C@@]12[C@H](COC(N)=O)C3=C(C(=O)C(C)=C(N)C3=O)N1C[C@@H]1N[C@@H]12", "note": "[MMC, Mitomycin C]", "values": [
      {"measurement": "Mean of binucleate cells containing micronuclei per 1000 cells", "setting": "human lymphocytes; 3h − S9, 0.2 μg/ml", "result": 28.0, "unit": "per 1000 cells"},
      {"measurement": "Mean of binucleate cells containing micronuclei per 1000 cells", "setting": "human lymphocytes; 20h − S9, 0.05 μg/ml", "result": 22.5, "unit": "per 1000 cells"}
    ]},
    {"smiles": "CC[C@H](C)[C@H](NC(=O)[C@H](CCCCN)NC(=O)[C@@H](N)CCCCN)C(=O)N[C@@H](CCCNC(=N)N)C(=O)N[C@H](C(=O)N[C@@H](CCCNC(=N)N)C(=O)N[C@@H](CC(C)C)C(=O)N[C@@H](CO)C(=O)N[C@@H](C)C(=O)NCCCC[C@H](NC(=O)[C@H](C)NC(=O)[C@H](CO)NC(=O)[C@H](CC(C)C)NC(=O)[C@H](CCCNC(=N)N)NC(=O)[C@@H](NC(=O)[C@H](CCCNC(=N)N)NC(=O)[C@@H](NC(=O)[C@H](CCCCN)NC(=O)[C@@H](N)CCCCN)[C@@H](C)CC)C(C)C)C(=O)NCCCC[C@H](NC(=O)[C@H](CCCCNC(=O)[C@H](C)NC(=O)[C@H](CO)NC(=O)[C@H](CC(C)C)NC(=O)[C@H](CCCNC(=N)N)NC(=O)[C@@H](NC(=O)[C@H](CCCNC(=N)N)NC(=O)[C@@H](NC(=O)[C@H](CCCCN)NC(=O)[C@@H](N)CCCCN)[C@@H](C)CC)C(C)C)NC(=O)[C@H](C)NC(=O)[C@H](CO)NC(=O)[C@H](CC(C)C)NC(=O)[C@H](CCCNC(=N)N)NC(=O)[C@@H](NC(=O)[C@H](CCCNC(=N)N)NC(=O)[C@@H](NC(=O)[C@H](CCCCN)NC(=O)[C@@H](N)CCCCN)[C@@H](C)CC)C(C)C)C(=O)NCCC(=O)O)C(C)C", "note": "[SET-M33L] (I: H-KKIRVRLSAKK[βAla]-OH / II: H-KKIRVRLSAK / III: H-KKIRVRLSA / IV: H-KKIRVRLSA; amide I:10-IV:C, I:11-II:C, II:10-III:C)", "values": [
      {"measurement": "MIC", "setting": "[1]", "result": "> 64", "unit": "µg/mL"},
      {"measurement": "MIC", "setting": "[2]", "result": 0.35, "unit": "µM"},
      {"measurement": "mortality", "setting": "BALB/c mice; single i.v. dose 40 mg/Kg, after 96 hours", "result": "90–100%"},
      {"measurement": "lethality and signs of toxicity", "setting": "BALB/c mice; single i.v. dose up to 20 mg/kg, monitored 4 days, 10 BALB/c mice/group", "result": "not lethal and no signs of toxicity were observed"}
    ]}
  ]
}
